Experimental data as given in patent US12503707B2, “Methods, plants and compositions for overcoming nutrient suppression of mycorrhizal symbiosis” (Cambridge Enterprise Limited, priority 2020, dated 2025).

Experiments:
[1] = test system: H. vulgare root epidermal cells; experiment: LCO-induced nuclear calcium oscillations after strigolactone, karrikin and/or CEP pre-treatment; type: cell-based, Hordeum vulgare; details: then 10^−7 M SmLCO
Experimental: (§1) FIGS. 11A-11B provide the effects of strigolactone or karrikin treatment on M. truncatula (FIG. 11A) and H. vulgare (FIG. 11B) root epidermal cell nuclear calcium oscillations. FIG. 11A provides traces of nuclear calcium oscillations produced by M. truncatula root epidermal cells. Cells were grown under high phosphate and limiting nitrate levels (3.75 mM PO4^− and 0 mM NO3^−). The top trace represents control cells that were pretreated with buffer alone; the second trace represents cells that were pretreated with 1 μM of strigolactone 5-deoxystrigol for 12 hours; and the third trace represents cells that were pretreated with a 1 μM mixture of karrikin 1 and karrikin 2 (KARs) for 12 hours. All cells were secondarily treated with 10^−8 M NS-LCO. The scale bar indicates a span of 10 minutes, and the fractions indicate the number of cells that responded over the total number of cells analyzed.
FIGS. 14A-14D provide the effects of treating H. vulgare plants with a strigolactone or with both a strigolactone and a CEP peptide. […] The scale bar indicates a span of 10 minutes, and the fractions indicate the number of cells that responded over the total number of cells analyzed. FIGS. 14B-14C provide the level of mycorrhizal colonization of H. vulgare when treated with the synthetic strigolactone analog GR24 under different nutrient conditions, as determined in two separate experiments. […]

[2] = test system: M. truncatula root epidermal cells; experiment: LCO-induced nuclear calcium oscillations after strigolactone or karrikin pre-treatment; type: cell-based, Medicago truncatula; details: 3.75 mM PO4− and 0 mM NO3−; 1 μM pre-treatment for 12 hours, then LCO
Experimental: as §1
In FIGS. 11A-11B, M. truncatula (FIG. 11A) and H. vulgare (FIG. 11B) plants were grown on media containing high phosphate and limiting nitrate (3.75 mM PO4^− and 0 mM NO3^− for M. truncatula; 0 mM NO3^− and 0.5 mM PO4^− for H. vulgare). H. vulgare pants tested in FIG. 14A were grown on BNM media containing high nitrate and high phosphate (5 mM NO3^− and 0.5 mM PO4^−). […]

[3] = test system: H. vulgare LysM receptor-like kinase homologs; experiment: LysM receptor-like kinase gene expression by RT-qPCR after strigolactone or karrikin treatment; type: in vivo, Hordeum vulgare; details: −N+P plates for 4 days, then 0.1 μM for 24 hours; relative to DMSO mock
Source text: FIG. 13 provides the relative expression levels of H. vulgare genes, including LysM receptor-like kinase homologs, in response to treatment with strigolactone or karrikin signaling molecules, as determined by qPCR. The H. vulgare gene is indicated on the x-axis including, from left to right, HvSTH7b (a homolog of Arabidopsis STH7, a karrikin-responsive gene (Nelson et al., 2010, PNAS)), HvRLK2, HvRLK3, HvRLK7, HvRLK9, and HvRLK10. Relative expression levels are shown on the y-axis. Values shown are the mean of three samples±SD. ** indicates P<0.01, and * indicates 0.01<P<0.05, as determined by a Student's t-test. […]
Wild type H. vulgare plants tested in FIG. 13 were grown on BNM plates for four days, and the plate roots were then treated with either 0.1 μM 5′-deoxystrigol (Chiralix), a mixture of 0.1 μM Karrikin 1 or 0.1 μM Karrikin 2 (Chiralix), or 0.1 μM GR24 (Chiralix) in liquid BNM for 24 hours. […] Real-time quantitative PCR (RT-qPCR) was performed using SensiFAST SYBR No-ROX Kit. An H. vulgare ADP gene was used as a reference gene, and fold changes were calculated for 5′-deoxystrigol-, karrikins- or GR24-treated roots with respect to DMSO-treated roots (mock treatment). […]

expression of LysM receptor-like kinase genes, including RLK10 [3]: induced
Substance: 5-deoxystrigol [strigolactone]
symbiotic calcium oscillations under replete phosphate after pre-treatment ([1]; 0 mM NO3− and 0.5 mM PO4−, 1 μM pre-treatment for 12 hrs): overrode phosphate suppression of symbiotic calcium oscillations
LCO induction of calcium oscillations under high nitrate after pre-treatment ([1]; 5 mM NO3− and 0.5 mM PO4−, 1 μM SL): only limited LCO induction of calcium oscillations
symbiotic calcium oscillations under replete phosphate after pre-treatment [2]: overrode phosphate suppression of symbiotic calcium oscillations
